Data on 1 substance can be found in article PMC10214526, “Semisynthetic LC3 Probes for Autophagy Pathways Reveal a Noncanonical LC3 Interacting Region Motif Crucial for the Enzymatic Activity of Human ATG3” (ACS Central Science, 2023).

In series [1] the target is T1, ATG3 C1–GABARAP (probe 2) complex formation (Homo sapiens, UniProt O95166).
T1 construct: SUMO2 (N, cleaved yes); Mxe GyrA intein-His6 (C, cleaved yes); made in house; host or cells: E. coli Rosetta-CodonPlus (DE3)-RIL
Put plainly: Competition assay: LIR^ATG3 peptides vs cross-linking of GABARAP methyl fumarate probe 2 with ATG3 C1. Type of series: biochemical. The following applies: probe 2 (15 μM) with ATG3 C1 in the presence of increasing amounts of peptide. The method, then: To exclude an effect of LIR deletion on protein activity we performed a competition experiment with chemically prepared LIR (L94-H112) peptide 5. Probe 2 (15 μM) was incubated with ATG3 C1 in the presence of increasing amounts of 5. […] We also postulated that cyclization of the LIR peptide would recapitulate its β-sheet conformation and lead to tighter binding than the linear peptide due to preorganization.[37] […] Cyclic peptide 6 was prepared by solid-phase peptide synthesis followed by cyclization using selective cysteine alkylation (Figure S11).[39],[40] […] Additionally, we confirmed the interaction of LIR^ATG3 peptides with GABARAP and LC3A by fluorescence polarization (Figure 2e–g). LIR^ATG3-derived peptides bind to both LC3A and GABARAP. As indicated by the competition experiments, cyclic peptides bound markedly tighter to GABARAP and LC3A than the linear peptides. […]
Figure 2 Characterization of LIR^ATG3. a. […] Quantification of competition assays shown in b and c. The amount of GABARAP–ATG3 C1 complex was quantified by gel-densitometry and normalized to the reaction without peptide for each gel. […] Fluorescence polarization binding-data of fluorescein-modified LIR^ATG3 peptide binding to GABARAP. […] Fluorescence polarization data of fluorescein-modified LIR^ATG3 peptide binding to LC3A. […]
Farnung et al. Supplementary Information and monitored using LC-MS analysis. […]

The nature of series [2]: Circular dichroism spectroscopy of LIR^ATG3 peptides. The class given is physicochemical. The following applies: 700 μM peptide, 20 mM potassium phosphate pH 7.2, 20 °C, 180-300 nm, 5x averaged. An excerpt: Farnung et al. Supplementary Information […]
H Capping with O H Resin cleavage O H Cyclization O […]
acid anhydride deprotection
Figure S11. Preparation of cyclized LIRATG3 peptide 6. a, Synthetic scheme describing the preparation of 6.
A cysteine residue is introduced at the C-terminus of the LIR motif. Following standard Fmoc-SPPS the LIR peptide is capped at its N-terminus with α-chloroacetic acid anhydride. Following resin cleavage, the peptide is cyclized by cysteine alkylation. b, Analytical RP-HPLC chromatograms showing the cyclization of the LIR […]
peptide to provide 6. […] Middle chromatogram
Figure S12. CD spectra of linear and cyclic LIR ATG3 peptides 5 and 6. CD spectra of LIRATG3 peptides 5 and 6 were recorded in 20 mM KPhos buffer (pH 7.2) at a concentration of 700 μM. Cyclized LIRATG3 peptide 6 […]
nm and an increase in band intensity at 215 nm.
Plasmid Supplier Identiﬁer Dilution
Anti-ATG5 Cell-Signalling #D5F5U 1:1,000
Anti-β-Actin Thermo-Fisher #BA3R 1:2,000
Table S2 Antibodies used in this study.
2.9. Circular dichroism spectroscopy
CD spectra were recorded on a JASCO J-1500 CD spectrometer in a 0.1 cm cuvette. Samples were measured in potassium phosphate (20 mM, pH 7.2) at 20 °C. Data were recorded between 180-300 nm with a measuring speed of 20 nm/min. Measurements were repeated (5x) and averaged.
Background spectrum was recorded and subtracted from measured spectra. […]

T1 sequence (O95166 1-115 limits assumed, one chain of several): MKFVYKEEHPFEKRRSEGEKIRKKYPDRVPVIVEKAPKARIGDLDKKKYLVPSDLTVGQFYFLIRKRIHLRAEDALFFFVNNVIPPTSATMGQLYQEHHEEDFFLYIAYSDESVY

For the substance “Ac-LEAIIEEDDGDGGWVDTYHAGGGK-OH [compound 5]”, the “Block of ATG3 modification” value in series [1] is “blocked ATG3 modification in a concentration-dependent manner”. In addition, the “Secondary structure by CD” value in series [2] is on record as “not structured in solution”.
